From USRE42890E1, “Furazanobenzimidazoles” (Basilea Pharmaceutica AG, priority 2003, dated 2011)

Experiments:
Jurkat = assay: MTS proliferation assay, Jurkat; format: cell-based, human; settings: 72 h incubation, read-out: MTS proliferation assay IC 50 Jurkat
Experimental: (§1) Cell lines are cultured in RPMI-1640 tissue culture medium containing either 5% or 10% fetal calf serum, 0.05 mM 2-mercaptoethanol, 2 mM glutamine and penicillin/streptomycin 50 μg/ml (complete medium) (Sigma, Buchs, Switzerland). General growth conditions are 37° C. and 7.5% CO2.
(§2) The following human cell lines (either EGFP transfected or not) are being used: HeLa (ATCC: CCL-2), KB (ATCC: CCL-17), MCF7 (ATCC: HTB-22), SK-BR-3 (ATCC: HTB-30), SK-Mel 1 (ATCC: HTB-67), SK-Mel 28 (ATCC: HTB-72), PC-3 (ATCC: CRL-1435), SW 480 (ATCC: CCL-228), NCl-H460 (ATCC: HTB-177), NCl-H1792 (ATCC: CRL-5895), HT1080 (ATCC: CCL-21), Jurkat (ATCC: TIB-152), Ramos (ATCC: CRL-1596), Raji (ATCC: CCL-86), H9 (ATCC: HTB-176), Hut78 (ATCC: TIB-161), K562 (ATCC: CCL 243), HL-60 (ATCC: CCL 240), U-87MG (ATCC: HTB-14), HepG2 (ATCC: HB-8065), U-2 OS (ATCC: HTB-96), Saos-2 (ATCC: HTB-85), U937 (ATCC: CRL 1593), Hs 578T (ATCC: HTB 126), HBL-100 (ATCC: HTB 124), Molt-4 (ATCC: CRL 1582).
(§3) The assay is performed in 96 well tissue culture plates. The cells (range: 1.5*10^3-10^4) are seeded out in 80 μl complete medium 24 h prior to compound treatment. The test compounds are added in 20 μl complete medium containing max 5% DMSO. The final compound concentrations in the assays are 10 μM, 3 μM, 1 μM and 0.3 μM, respectively. The assay plates are incubated for 72 h at culture conditions. The MTS reagent is prepared according to the manufacturer's protocol (Promega G1111). 20 μl MTS reagent are added to each well, the assay plates are quickly spun and incubated for another 3 h at culture conditions. Subsequently, the plates are shortly shaked and absorption measured with a microplate-reader at 492 nm.

HeLa = assay: MTS proliferation assay, HeLa; format: cell-based, human; settings: 72 h incubation, read-out: MTS proliferation assay IC 50 HeLa
Experimental: as §1, §2, §3

[1] = test system: adherent cells or suspension cells; assay: Hoechst 33342 nuclear staining (fraction of apoptotic nuclei); format: cell-based; design: key: 0 relating to no activity; 1 relating to weak activity comprising less than 70% of the cells; score 2 relating to strong activity comprising more than 70% of the cells
Experimental: as §1
This assay is performed in 96 well tissue culture plates. Appropriate number of cells (adherent cells: 3-5*10^3, suspension cells: 8-10*10^3) are being seeded out in 80 μl complete medium. Adherent cells are incubated for 24 h for proper spreading out before addition of test compounds while suspension cells are immediately treated with test compounds after seeding out. The test compounds are added in 20 μl complete medium containing max 5% DMSO. […] After 24 h or 48 h incubation at culture conditions, 10 μl medium containing Hoechst 33342 dye (Sigma B-2261) at 2-5 μg/ml are added to each well. The assay plates are then further incubated for 30 minutes and subsequently analyzed with a standard inverted fluorescence microscope.
The readout allows the determination of the fraction of apoptotic nuclei as well as other morphological criteria specific for apoptosis as a function of the treatment. The following scores are used: 0 relating to no activity, 1 relating to weak activity comprising less than 70% of the cells and score 2 relating to strong activity comprising more than 70% of the cells.

MRC5 = assay: MTS proliferation assay, MRC5; format: cell-based; settings: MRC5, 72 h incubation; read-out: MTS proliferation assay IC 50 MRC5
Experimental: as §1, §3

| IC50 (Jurkat) | IC50 (HeLa) | Structure (SMILES) | Hoechst 33342 nuclear staining score ([1]; H460, conc 0.01 μm) | Hoechst 33342 nuclear staining score ([1]; H460, conc 0.1 μm) | Hoechst 33342 nuclear staining score ([1]; H460, conc 1 μm) | Hoechst 33342 nuclear staining score ([1]; HeLa, conc 0.01 μm) | Hoechst 33342 nuclear staining score ([1]; HeLa, conc 0.1 μm) | Hoechst 33342 nuclear staining score ([1]; HeLa, conc 1 μm) | Hoechst 33342 nuclear staining score ([1]; Jily, conc 0.01 μm) | Hoechst 33342 nuclear staining score ([1]; Jily, conc 0.1 μm) | Hoechst 33342 nuclear staining score ([1]; Jurkat, conc 0.01 μm) | Hoechst 33342 nuclear staining score ([1]; Jurkat, conc 0.1 μm) | Hoechst 33342 nuclear staining score ([1]; Jurkat, conc 1 μm) | Hoechst 33342 nuclear staining score ([1]; MRC5, conc 0.01 μm) | Hoechst 33342 nuclear staining score ([1]; MRC5, conc 0.1 μm) | Hoechst 33342 nuclear staining score ([1]; MRC5, conc 1 μm) | Hoechst 33342 nuclear staining score ([1]; PBLs, conc 0.01 μm) | Hoechst 33342 nuclear staining score ([1]; PBLs, conc 0.1 μm) | Hoechst 33342 nuclear staining score ([1]; PBLs, conc 1 μm) | IC50 (MRC5) | also measured |
| --- | --- | --- | --- | --- | --- | --- | --- | --- | --- | --- | --- | --- | --- | --- | --- | --- | --- | --- | --- | --- | --- |
| > 1 µM | > 1 µM | COc1cccc(C(Cn2c(-c3nonc3N)nc3ccccc32)=NO)c1 (mixture of isomers) [Example 24] | 0 | 0 | 0 | 0 | 0 | 0 | 0 | 0 | 0 | 0 | 0 | 0 | 0 | 0 | 0 | 0 | 0 | > 1 µM | Hoechst 33342 nuclear staining score ([1]; Jily, conc 1 μm): 0 |
| > 1 µM | > 1 µM | Nc1nonc1-c1nc2ccccc2n1CC(=NO)c1ccc(Cl)cc1 (mixture of isomers) [Example 21] | 0 | 0 | 0 | 0 | 0 | 0 | – | – | 0 | 0 | 0 | 0 | 0 | 0 | 0 | 0 | 0 | > 1 µM | – |
| 0.1 to 1 µM | 0.1 to 1 µM | COc1cccc(C(=O)Cn2c(-c3nonc3N)nc3ccccc32)c1 [Example 23] | – | – | – | 0 | 0 | 2 (score 2 relating to strong activity comprising more than 70% of the cells) | – | – | 0 | 0 | 2 (score 2 relating to strong activity comprising more than 70% of the cells) | 0 | 0 | 0 | 0 | 0 | 0 | 0.1 to 1 µM | – |
| 0.1 to 1 µM | 0.1 to 1 µM | Nc1nonc1-c1nc2ccccc2n1CC(=O)c1ccccc1Cl [Example 32] | 0 | 0 | 0 | 0 | 0 | 0 | 0 | 0 | 0 | 0 | 2 (score 2 relating to strong activity comprising more than 70% of the cells) | 0 | 0 | 0 | 0 | 0 | 0 | > 1 µM | Hoechst 33342 nuclear staining score ([1]; Jily, conc 1 μm): 0 |
| > 1 µM | > 1 µM | CON=C(Cn1c(-c2nonc2N)nc2ccccc21)c1ccc(-c2ccccc2)cc1 (mixture of isomers) [Example 28] | 0 | 0 | 0 | 0 | 0 | 0 | 0 | 0 | 0 | 0 | 0 | 0 | 0 | 0 | 0 | 0 | 0 | > 1 µM | Hoechst 33342 nuclear staining score ([1]; Jily, conc 1 μm): 0 |
| > 1 µM | > 1 µM | CCN(CC)c1ccc(C(=O)Cn2c(-c3nonc3N)nc3ccccc32)cc1 [Example 39] | 0 | 0 | 0 | 0 | 0 | 0 | 0 | 0 | 0 | 0 | 0 | 0 | 0 | 0 | 0 | 0 | 0 | > 1 µM | Hoechst 33342 nuclear staining score ([1]; Jily, conc 1 μm): 0 |
| > 1 µM | > 1 µM | CON=C(Cn1c(-c2nonc2N)nc2ccccc21)c1ccccc1Cl (mixture of isomers) [Example 34] | 0 | 0 | 0 | 0 | 0 | 0 | 0 | 0 | 0 | 0 | 0 | 0 | 0 | 0 | 0 | 0 | 0 | > 1 µM | Hoechst 33342 nuclear staining score ([1]; Jily, conc 1 μm): 0 |
| > 1 µM | > 1 µM | Nc1nonc1-c1nc2ccccc2n1CC(=NO)c1ccccc1Cl (mixture of isomers) [Example 33] | 0 | 0 | 0 | 0 | 0 | 0 | 0 | 0 | 0 | 0 | 0 | 0 | 0 | 0 | 0 | 0 | 0 | > 1 µM | Hoechst 33342 nuclear staining score ([1]; Jily, conc 1 μm): 0 |
